≈ marks a conversion by molar mass, not a printed value. Entries after “also recorded” stand apart in the source; their conditions may differ.
Tests used:
FimH [1] = target: T1, FimH (Escherichia coli, UniProt P08191); details: previously reported, SPR; cited from earlier work
FimH [2] = target: T1, FimH
Source text: In order to more accurately determine the relative contributions of both binding affinity to FimH versus other compound properties to the potency seen in the cellular HA titer assay, a high-throughput fluorescence polarization (FP) (or anisotropy) competitive binding assay was developed using a fluorescent-labeled mannoside ligand shown in Scheme 4.
A fluorescent polarization assay was developed and miniaturized to monitor the direct binding of a synthesized fluorescently labeled butyl mannose derivative to the FimH receptor as well as competitive displacement by other synthetic mannosides. This fluorescent polarization assay provides a rapid method for monitoring improvements to receptor affinity during the synthetic process, as well as providing Kd binding affinity measurements.

UTI89 [3] = test: IBC enumeration by LacZ staining of whole bladders; assay type: in vivo, mice
Method: (§1) After invasion, UPEC are able to rapidly replicate to form IBCs, thus dramatically expanding in numbers. After maturation of the IBC, bacteria are able to disperse from the biomass and spread to neighboring cells to expand the buildup in bacterial numbers via next generation IBC. The ability of mannosides to block IBC formation was evaluated based on LacZ staining of whole mount bladders, a protocol developed to enumerate IBCs. Whole bladder titers were also determined by quantifying colony forming units (CFUs) at 6 hours post-infection and later time points as test compounds were further developed.
To test the efficacy of the mannosides in vivo, UTI89 expressing type 1 pili were pre-incubated with mannosides, inoculated into mice and IBCs were quantitated at 6 hours post-infection (hpi).
Enumeration of bladder IBCs. For bacterial pretreatment experiments, mannoside was added to the bacterial suspension and incubated for 20 min. For animal pretreatment experiments, mannoside ZFH-2056 was administered either IP (5 mg/kg) or orally (100 mg/kg) 30 min prior to inoculation with UTI89. To accurately count the number of IBCs, mice were sacrificed 6 hpi and bladders were aseptically removed, bisected, splayed on silicone plates and fixed in 2% paraformaldehyde (v/v). IBCs, readily discernable as punctate violet spots, were quantified by LacZ staining of whole bladders.

[4] = Solubility (qualitative statements); details: relative to di-ester 15a
UTI89 [5] = test: Bladder bacterial titer (CFU), mouse UTI model, UTI89; assay type: in vivo, mice; details: for bacterial titers upon boosting: pretreatment plus 2 treatments every 8h
FimH [6] = target: T2, FimH (Escherichia coli, UniProt Q1R2J4); test: cell-based; design: species or system UPEC
T2 construct: endogenous in cells; host or cells: type 1 piliated UPEC bacteria
Method: In some embodiments, activity of the compound is measured using hemmagglutination titer of guinea pig red blood cells. Hemagglutination of guinea pig red blood cells by type1 piliated UPEC is dependent upon FimH mannose binding ability and serial dilutions allow a quantitative analysis.
Biological activity against FimH was evaluated using a guinea pig red blood cell-based hemagglutination (HA) assay (ref) in which the concentration of the mannoside on reducing agglutination by 50% was used as the primary endpoint (50% HA titer).
Hemagglutination of guinea pig red blood cells by type1 piliated UPEC is dependent upon FimH mannose binding ability.

[7] = Urine pharmacokinetic analysis of mannoside (LC-MS); assay type: in vivo, mice
Method: Pharamacokinetic analysis. […] An equal volume of 10 µM internal standard (ZFH-2050) was added to the urine.

UTI89 biofilm [8] = test: Biofilm formation inhibition assay (PVC, crystal violet); assay type: cell-based, UPEC; details: PVC, LB, room temperature; read-out: IC50 of mannoside on UTI89 biofilm formation
Method: First, the ability of mannoside derivatives to prevent UPEC type 1 dependent biofilm formation in the published Kolter assay was measured as optimized for the prototypic UTI89 strain used in these assays.
(§3) These mannosides were evaluated first for their ability to inhibit biofilm formation or disrupt preformed biofilms. Biofilm inhibition was evaluated on FimH-dependent UTI89 biofilms grown on PVC in LB at room temperature. […] Biofilm disruption was evaluated by the addition of mannosides to preformed 24 h biofilms followed by growth for an additional 16 h.
UTI89 biofilm was grown in LB +/- mannoside for 24 h at 22°C in PVC plates and quantitated using crystal violet.
Biofilm assay. UTI89 was grown in LB broth in wells of PVC microtiter plates at 23°C in the presence of individual mannosides at varying concentrations. After 48 h of growth, wells were rinsed with water and stained with crystal violet for quantification as described. For biofilm disruption activity in PVC plates, UTI89 was grown in LB broth in wells of PVC microtiter plates at 23°C. After 24 h of growth, mannoside was added and biofilms were grown for an additional 16h. Wells were then rinsed, stained with crystal violet and quantified.

UTI89 [9] = test: Gentamicin protection assay of infected mouse bladders; assay type: in vivo, mice; details: 6 hpi, IP (5 mg/kg) pretreatment
Source text: Based on the extensive elucidation of the UPEC pathogenic cascade, critical nodes in pathogenesis that mannosides would target and thereby have powerful and potent therapeutic ramifications were identified. The first step in the UPEC pathway involves FimH-mediated colonization of the bladder epithelium via the recognition of mannose receptors. Bacterial invasion into superficial bladder umbrella cells can then ensue. […] To test this, a well-established gentamicin protection assay that allows the determination of the luminally bound fraction versus the intracellular fraction was utilized (Fig 10). […] This may be due to contamination from bacteria in the urine or bacteria that are non-specifically associated with the epithelium. In any case, blocking invasion blocks the ability of the bacteria to rapidly expand in numbers. This is due to the ability of the mannosides to block the IBC mechanism.
The efficacy of in vivo mannoside treatment was evaluated after dosing animals with mannoside either IP or PO 30 min prior to infecting with UTI89. At 6 hpi the bladders were removed and total bacterial CFUs were quantitated. […] Gentamicin efficiently kills extracellular UPEC but is unable to penetrate tissue and thus intracellular bacteria survive gentamicin treatment18. […] In bladders from untreated mice, 10^3 - 10^4 CFUs remained after gentamicin treatment.
Gentamicin protection assay. […] The bladders were then bisected twice and washed three times in 500 µl of PBS each. The wash fractions were pooled, lightly spun at 500 rpm for 5 min to pellet exfoliated bladder cells, serially diluted, and plated onto LB agar to obtain the luminal fraction. The bladders were treated with 100 µg of gentamicin/ml for 90 min at 37°C. After treatment, the bladders were washed twice with PBS to eliminate residual gentamicin, homogenized in 1 ml of PBS, serially diluted, and plated onto LB agar to enumberate the CFUs in the intracellular fraction.

PBC-1 [10] = test: Bladder bacterial titer (CFU), mouse UTI model, TMP-SMZ resistant strain; assay type: in vivo, mice
Method: (§2) Mice were either untreated or IP treated with mannoside ZFH-2056 30 min prior to inoculation with bacteria. […] Not only do the bacteria escape the immune system in their intracellular niche, they are also able to escape exposure to effective antibiotics.

UTI89 biofilm [11] = test: Disruption of preformed biofilm; assay type: cell-based, UPEC; details: for IC50: another 24h
Method: as §3
For biofilm disruption activity in PVC plates, UTI89 was grown in LB broth in wells of PVC microtiter plates at 23°C. After 24 h of growth, mannoside was added and biofilms were grown for an additional 16h. Wells were then rinsed, stained with crystal violet and quantified. For biofilm disruption activity on PVC coverslips, UTI89 was grown in LB broth in 50 mL conicals containing PBC coverslips at 23°C. […] Coverslips were then rinsed, fixed with 2% paraformaldehyde (v/v), stained with SYTO9 (1:1000 in PBS; Molecular Probes) and observed with a Zeiss LSM410 confocal laser scanning microscope under a 63X objective.
UTI89 was grown in LB in PVC plates and allowed to form biofilm at RT for 24 or 48h. […] Biofilm was then allowed to grow for another 24h at RT. Biofilm formation was then quantitated using the standard crystal violet assay.

UTI89 [12] = test: Bladder bacterial titer (CFU), mouse UTI model, UTI89; assay type: in vivo, mice; details: for total bacterial CFUs: 6 hpi
Method: as §1
Animal infections. Bacteria were grown under type 1 pili-inducing conditions (2x24 h at 37°C statically in LB). The bacteria were harvested and resuspended to an OD600 of 0.5 in PBS. Eight-week-old C3H/HeN (Harlan) female mice were anesthetized by inhalation of isoflurane and infected via transurethral catheterization with 50 µl of the bacterial suspension, resulting in 1-2 x 10^7 inoculum. At 6 hpi, mice were sacrificed by cervical dislocation under anesthesia and the bladders were immediately harvested and processed as described below. All animal studies using mice were approved by the Animal Studies Committee of Washington University (Animal Protocol Number 20100002).
Bladder tissue bacterial titer determination. Mannoside ZFH-2056 was administered either IP (5 mg/kg) or orally (100 mg/kg) 30 min prior to inoculation with UTI89. To enumerate the bacteria present, mice were sacrificed at 6 hpi and bladders were aseptically removed and homogenized in 1 ml PBS, serially diluted and plated onto LB agar plates. CFU was enumerated after 16 h of growth at 37 °C.

PBC-1 [13] = test: Growth curve with TMP-SMZ (MIC); assay type: cell-based, UPEC
[14] = 3 days of 54 µg/ml TMP and 270 µg/ml SMZ in drinking water
Method: as §2
Antibiotic treatment. […] Water was changed daily for 3 days prior to inoculation with UTI89.

Compound: CCCCO[C@H]1O[C@H](CO)[C@@H](O)[C@H](O)[C@@H]1O [Butylαman, α-D-butylmannoside, reference compound]
- Kd (FimH [1]): 151 nM
- EC50 (FimH [2]): 245 nM

Compound: CNC(=O)c1cc(C(=O)NC)cc(-c2ccc(O[C@H]3O[C@H](CO)[C@@H](O)[C@H](O)[C@@H]3O)cc2)c1 [Compound 50, N1,N3-dimethyl-5-[4-[(2R,3S,4S,5S,6R)-3,4,5-trihydroxy-6-(hydroxymethyl)tetrahydropyran-2-yl]oxyphenyl]benzene-1,3-dicarboxamide]
- IBCs (UTI89 [3]; 6 hpi, UTI89 pre-incubated with 10 µM): most significant reduction in IBCs
- IBC counts in the bladder (UTI89 [3]; 10^6 inoculum, 6h): no IBCs observed
- IBC quantification (UTI89 [3]; IP (5 mg/kg) 30 min prior to inoculation, 6 hpi): significant reduction in IBCs
- IBC quantification (UTI89 [3]; oral (100 mg/kg) 30 min prior to inoculation, 6 hpi): significant reduction in IBCs
- solubility [4]: much improved solubility
- bladder titers (UTI89 [5]; 5mg/kg 30 min prior, 10^7 UTI89, 24 hpi): significantly reduced bacterial titers
- bladder titers (UTI89 [5]; 50mg/kg 30 min prior, 10^7 UTI89, 6 hpi): significantly inhibited bacterial infection
- bladder titers (UTI89 [5]; 50mg/kg 30 min prior, 10^7 UTI89, 24 hpi): significantly reduced bacterial titers
- 2 week titers (UTI89 [5]; 10^6 inoculum, single dose 5mg/kg 30 min prior): significant decrease in bacterial load
- bacterial titers (UTI89 [5]; 10^6 inoculum, treated vs untreated mice): significant decrease
- bacterial titers, post-infection treatment (UTI89 [5]; 24hpi, 5mg/kg IP 1h post-infection plus 2 treatments every 8h): no efficacy observed
- bacterial titers upon boosting (UTI89 [5]; 24hpi, 10^6 inoculum): not observed
- bacterial titers upon boosting (UTI89 [5]; 24hpi, 10^7 inoculum): further efficacy
- bacterial titers (UTI89 [5]; 24hpi, single IP pretreatment 5mg/kg, 10^7 and 10^6 inoculum): significant drop in bacterial titers
- EC50 (FimH [2]): 87 nM
- EC50 (FimH [6]): 370 nM
- difference in cell potency vs. binding (drop in cell activity relative to binding) (FimH [6]; HA titer vs FP EC50): 4 fold
- inhibition of FimH-dependent hemagglutination (FimH [6]; in words): potent inhibitors
- EC90 (FimH [6]; read-out: HA 50% titer EC90): 370 nM
- lower initial urine concentration versus IP ([7]; 100 mg/kg PO): 10 fold
- higher urine levels versus IP ([7]; 100 mg/kg PO, 8 hours post-dosing): 10 fold
- concentration in the urine ([7]; IP 5 mg/kg and 10 mg/kg, 30 min after treatment): ~5000 µM
- time by which mostly gone (eliminated in the urine) ([7]; IP dosing, post injection): 6 to 8 h
- drug cleared to the urine intact ([7]; mouse, in vivo): > 95%
- concentration at 8 h ([7]; mouse, urine, IP, eight hours after dosing, read-out: level in the urine): ≤ 0.74 µM
- IC50 (UTI89 biofilm [8]): 740 nM
- luminal bacteria (UTI89 [9]): significantly reduced
- intracellular bacteria (CFUs after gentamicin) (UTI89 [9]; listed as ZFH-2056): eliminated all CFUs; also recorded: significantly reduced
- efficacy against TMP-SMZ resistant strains (PBC-1 [10]; Fig. 29): increased efficacy
- bacterial load in the bladder (PBC-1 [10]; IP 30 min prior to inoculation, 6 hpi): significant drop in bacterial load
- biofilm structure by confocal microscopy (UTI89 biofilm [11]; 0.3 µM, 24 h biofilm plus 16 h): lacked continuity
- IC50 (UTI89 biofilm [11]; mannoside added at 24h): ~6000 nM
- IC50 (UTI89 biofilm [11]; mannoside added at 48h): ~25000 nM
- bladder titers (UTI89 [12]; 5mg/kg 30 min prior, 10^7 UTI89, 6 hpi): significantly inhibited bacterial infection
- total bacterial CFUs (UTI89 [12]; IP (5 mg/kg) 30 min prior to inoculation, listed as ZFH-2056, 5 mg/kg): significant drop in bacterial counts; also recorded: significant drop in bacterial load
- total bacterial CFUs (UTI89 [12]; oral (100 mg/kg) 30 min prior to inoculation): significant drop in bacterial counts
- effect on efficacy of TMP-SMZ killing (PBC-1 [13]; 100 µM mannoside): not found to increase the efficacy of TMP-SMZ killing

Compound: COc1cc(Cc2cnc(N)nc2N)cc(OC)c1OC [TMP, Trimethoprim]
- MIC (PBC-1 [13]): 256 µg/mL (≈ 882 µM)
- concentration in urine [14]: 9950 ± 4360 µg/mL

From EP3492483A1, “COMPOUNDS AND METHODS FOR TREATING BACTERIAL INFECTIONS” (The Washington University, priority 2009, dated 2011)
